{"source": "ChEMBL document CHEMBL5465560", "about": "“Selectivity Literature for EUbOPEN Chemogenomic Library” (2024)", "key": {"[1]": {"target": "T1, N-lysine methyltransferase KMT5A (Homo sapiens) (UniProt Q9NQR1)", "T1 sequence (whole entry)": "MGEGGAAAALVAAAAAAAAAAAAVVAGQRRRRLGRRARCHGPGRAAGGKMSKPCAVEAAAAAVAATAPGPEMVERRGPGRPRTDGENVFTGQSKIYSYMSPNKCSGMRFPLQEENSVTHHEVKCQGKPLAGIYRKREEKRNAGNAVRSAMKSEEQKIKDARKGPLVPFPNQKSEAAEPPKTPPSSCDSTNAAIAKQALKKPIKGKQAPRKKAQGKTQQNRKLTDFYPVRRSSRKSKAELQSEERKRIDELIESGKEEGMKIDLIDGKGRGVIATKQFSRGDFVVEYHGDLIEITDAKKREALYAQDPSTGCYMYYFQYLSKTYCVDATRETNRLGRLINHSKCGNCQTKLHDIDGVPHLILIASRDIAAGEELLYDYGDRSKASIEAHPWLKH", "assay": "Selectivity interaction (Methyltransferase screen (radiometric assays, panel of 8 PRMTs, 21 protein lysine methyltransferases, 3 DNA methyltransferases, and one RNA methyltransferase)) EUB0000272b SETD8"}, "[2]": {"target": "T2, Receptor-interacting serine/threonine-protein kinase 1 (Homo sapiens) (UniProt Q13546)", "T2 sequence (whole entry)": "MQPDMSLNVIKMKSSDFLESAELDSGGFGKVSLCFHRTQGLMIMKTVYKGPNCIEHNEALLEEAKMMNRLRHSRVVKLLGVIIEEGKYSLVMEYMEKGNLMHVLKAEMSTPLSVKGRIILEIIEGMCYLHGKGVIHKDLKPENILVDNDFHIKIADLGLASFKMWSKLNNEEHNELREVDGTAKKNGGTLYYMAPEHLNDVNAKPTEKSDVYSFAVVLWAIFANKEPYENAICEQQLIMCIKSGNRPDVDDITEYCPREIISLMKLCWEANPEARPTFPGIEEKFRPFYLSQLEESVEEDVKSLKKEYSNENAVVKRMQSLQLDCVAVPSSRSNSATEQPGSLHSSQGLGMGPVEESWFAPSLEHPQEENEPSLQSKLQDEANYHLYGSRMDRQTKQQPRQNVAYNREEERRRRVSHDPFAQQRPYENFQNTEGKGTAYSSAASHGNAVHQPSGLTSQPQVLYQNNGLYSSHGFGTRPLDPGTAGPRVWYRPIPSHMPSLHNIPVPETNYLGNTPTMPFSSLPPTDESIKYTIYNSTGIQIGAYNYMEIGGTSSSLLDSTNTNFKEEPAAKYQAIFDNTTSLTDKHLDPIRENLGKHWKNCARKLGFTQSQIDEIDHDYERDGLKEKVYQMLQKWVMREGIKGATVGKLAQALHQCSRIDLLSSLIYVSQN", "assay": "Selectivity interaction (KinomeScan (DiscoverX)) EUB0000655a RIPK1", "settings": "at 10 µM"}, "[3]": {"target": "T3, TGF-beta receptor type-1 (Homo sapiens) (UniProt P36897)", "T3 sequence (whole entry)": "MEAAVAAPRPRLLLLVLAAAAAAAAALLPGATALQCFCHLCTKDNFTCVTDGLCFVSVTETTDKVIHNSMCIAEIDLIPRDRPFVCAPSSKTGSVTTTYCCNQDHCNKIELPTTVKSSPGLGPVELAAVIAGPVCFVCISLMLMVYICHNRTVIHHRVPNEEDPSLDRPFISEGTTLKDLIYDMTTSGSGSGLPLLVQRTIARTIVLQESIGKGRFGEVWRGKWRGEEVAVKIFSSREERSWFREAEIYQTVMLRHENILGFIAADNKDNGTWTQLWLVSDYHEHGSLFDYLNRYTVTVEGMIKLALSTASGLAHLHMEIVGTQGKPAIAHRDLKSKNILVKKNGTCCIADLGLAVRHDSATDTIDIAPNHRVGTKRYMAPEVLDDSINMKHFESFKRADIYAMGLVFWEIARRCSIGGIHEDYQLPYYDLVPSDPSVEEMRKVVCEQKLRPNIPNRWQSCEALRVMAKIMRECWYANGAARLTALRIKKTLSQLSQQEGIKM", "assay": "Selectivity interaction (KinomeScan (DiscoverX)) EUB0000618a TGFBR1", "settings": "at 10 µM"}, "[4]": {"target": "Phosphorylase b kinase gamma catalytic chain, skeletal muscle/heart isoform (Homo sapiens) (UniProt Q16816)", "sequence (Q16816 whole entry, looked up, canonical isoform)": "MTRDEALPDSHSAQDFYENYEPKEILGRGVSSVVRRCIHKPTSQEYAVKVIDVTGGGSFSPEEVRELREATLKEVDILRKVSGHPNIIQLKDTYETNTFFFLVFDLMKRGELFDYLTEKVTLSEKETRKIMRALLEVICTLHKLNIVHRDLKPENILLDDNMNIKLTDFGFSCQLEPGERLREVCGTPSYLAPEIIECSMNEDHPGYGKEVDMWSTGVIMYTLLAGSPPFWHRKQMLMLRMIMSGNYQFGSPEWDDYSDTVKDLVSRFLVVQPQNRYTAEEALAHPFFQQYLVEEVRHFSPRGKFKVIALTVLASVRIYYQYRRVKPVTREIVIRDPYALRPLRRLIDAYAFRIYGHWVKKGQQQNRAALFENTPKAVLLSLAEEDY", "assay": "Selectivity interaction (KinomeScan (DiscoverX)) EUB0000607a PHKG1", "settings": "at 10 µM"}, "[5]": {"target": "T4, Calcium/calmodulin-dependent protein kinase type IV (Homo sapiens) (UniProt Q16566)", "T4 sequence (whole entry)": "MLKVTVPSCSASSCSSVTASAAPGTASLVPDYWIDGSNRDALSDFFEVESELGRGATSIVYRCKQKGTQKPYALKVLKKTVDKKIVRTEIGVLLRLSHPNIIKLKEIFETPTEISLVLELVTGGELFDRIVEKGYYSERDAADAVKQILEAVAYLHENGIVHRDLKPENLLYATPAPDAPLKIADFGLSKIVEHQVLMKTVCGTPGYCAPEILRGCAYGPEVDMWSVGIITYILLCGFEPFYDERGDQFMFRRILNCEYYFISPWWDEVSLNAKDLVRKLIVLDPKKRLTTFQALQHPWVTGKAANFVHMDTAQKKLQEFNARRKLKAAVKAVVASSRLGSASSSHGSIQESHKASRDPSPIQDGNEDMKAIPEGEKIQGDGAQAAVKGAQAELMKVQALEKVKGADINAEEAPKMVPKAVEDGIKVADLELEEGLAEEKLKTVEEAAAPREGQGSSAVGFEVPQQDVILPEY", "assay": "Selectivity interaction (KinomeScan (DiscoverX)) EUB0000045b CAMK4"}, "[6]": {"target": "Phosphatidylinositol 4,5-bisphosphate 3-kinase catalytic subunit alpha isoform (Homo sapiens) (UniProt P42336)", "sequence (P42336 whole entry, canonical isoform)": "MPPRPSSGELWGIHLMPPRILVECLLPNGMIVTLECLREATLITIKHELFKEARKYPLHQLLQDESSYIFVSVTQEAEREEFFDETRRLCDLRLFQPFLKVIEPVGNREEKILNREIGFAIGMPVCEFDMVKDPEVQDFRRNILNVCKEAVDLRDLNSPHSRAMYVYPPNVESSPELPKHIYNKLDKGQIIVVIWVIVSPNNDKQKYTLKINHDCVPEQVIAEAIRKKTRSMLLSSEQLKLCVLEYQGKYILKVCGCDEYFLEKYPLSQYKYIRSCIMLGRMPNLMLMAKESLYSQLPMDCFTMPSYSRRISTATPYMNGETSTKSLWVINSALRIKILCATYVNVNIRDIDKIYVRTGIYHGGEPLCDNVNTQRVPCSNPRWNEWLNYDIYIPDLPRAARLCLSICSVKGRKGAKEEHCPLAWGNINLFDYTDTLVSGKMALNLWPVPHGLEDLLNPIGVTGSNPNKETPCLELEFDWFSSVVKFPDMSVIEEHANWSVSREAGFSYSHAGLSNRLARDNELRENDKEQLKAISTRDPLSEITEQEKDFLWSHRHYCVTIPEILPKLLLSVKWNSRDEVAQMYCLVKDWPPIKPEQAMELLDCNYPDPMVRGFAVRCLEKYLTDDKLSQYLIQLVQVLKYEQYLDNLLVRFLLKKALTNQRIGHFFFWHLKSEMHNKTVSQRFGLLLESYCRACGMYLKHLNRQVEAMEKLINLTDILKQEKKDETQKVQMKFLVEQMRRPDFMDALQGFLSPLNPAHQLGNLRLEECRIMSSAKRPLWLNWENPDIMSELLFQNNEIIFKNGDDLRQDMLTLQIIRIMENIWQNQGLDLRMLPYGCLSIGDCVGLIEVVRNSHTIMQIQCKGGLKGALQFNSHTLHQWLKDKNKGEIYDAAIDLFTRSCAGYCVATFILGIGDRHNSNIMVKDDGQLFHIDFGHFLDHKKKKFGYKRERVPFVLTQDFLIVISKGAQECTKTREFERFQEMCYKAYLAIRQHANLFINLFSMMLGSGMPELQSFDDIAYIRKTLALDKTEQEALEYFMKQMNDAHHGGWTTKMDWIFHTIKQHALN", "settings": "at 10 µM"}, "[7]": {"target": "Mitogen-activated protein kinase 8 (Homo sapiens, UniProt P45983)", "sequence (P45983 whole entry)": "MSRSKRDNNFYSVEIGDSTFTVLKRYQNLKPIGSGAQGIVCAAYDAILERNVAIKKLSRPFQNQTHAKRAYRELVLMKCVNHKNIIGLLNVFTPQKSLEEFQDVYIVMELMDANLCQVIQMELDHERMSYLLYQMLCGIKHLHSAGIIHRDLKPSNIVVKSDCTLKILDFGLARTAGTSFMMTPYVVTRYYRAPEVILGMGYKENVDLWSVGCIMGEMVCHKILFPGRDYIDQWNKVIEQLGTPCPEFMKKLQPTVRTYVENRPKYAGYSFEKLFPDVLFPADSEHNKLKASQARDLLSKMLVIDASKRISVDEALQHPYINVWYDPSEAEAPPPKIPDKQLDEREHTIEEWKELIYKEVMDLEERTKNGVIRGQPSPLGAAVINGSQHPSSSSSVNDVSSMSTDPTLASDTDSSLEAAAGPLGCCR", "assay": "Selectivity interaction (Kinase panel (Invitrogen)) EUB0000639a MAPK8", "settings": "at 200 nM"}, "[8]": {"target": "Serine/threonine-protein kinase Nek4 (Homo sapiens) (UniProt P51957)", "sequence (P51957 whole entry, looked up)": "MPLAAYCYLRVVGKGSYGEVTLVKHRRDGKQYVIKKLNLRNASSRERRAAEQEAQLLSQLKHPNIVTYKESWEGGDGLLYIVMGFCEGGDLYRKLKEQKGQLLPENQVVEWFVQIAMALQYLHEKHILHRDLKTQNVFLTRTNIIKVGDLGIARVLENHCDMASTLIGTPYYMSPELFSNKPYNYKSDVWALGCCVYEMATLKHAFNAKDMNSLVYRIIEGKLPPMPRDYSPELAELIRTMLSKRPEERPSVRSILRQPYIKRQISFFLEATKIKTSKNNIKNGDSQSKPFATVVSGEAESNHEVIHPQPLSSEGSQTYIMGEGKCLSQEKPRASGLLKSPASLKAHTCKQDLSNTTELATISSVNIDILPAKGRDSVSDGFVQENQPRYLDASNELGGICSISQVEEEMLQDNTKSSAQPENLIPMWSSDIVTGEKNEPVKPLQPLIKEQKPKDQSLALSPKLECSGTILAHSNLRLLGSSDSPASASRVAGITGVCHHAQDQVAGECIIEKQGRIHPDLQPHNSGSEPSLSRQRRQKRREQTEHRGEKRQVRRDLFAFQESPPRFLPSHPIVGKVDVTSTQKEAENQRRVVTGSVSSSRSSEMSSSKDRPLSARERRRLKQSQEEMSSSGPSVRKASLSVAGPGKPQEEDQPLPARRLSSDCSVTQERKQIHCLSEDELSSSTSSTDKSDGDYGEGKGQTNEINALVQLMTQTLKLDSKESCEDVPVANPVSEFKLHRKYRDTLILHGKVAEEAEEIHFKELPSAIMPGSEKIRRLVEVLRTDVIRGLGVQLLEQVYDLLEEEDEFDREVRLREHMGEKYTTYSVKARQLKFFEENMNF", "assay": "Selectivity interaction (ProQinase) EUB0000171b NEK4"}, "[9]": {"target": "Tyrosine-protein kinase HCK (Homo sapiens) (UniProt P08631)", "sequence (P08631 2-526 limits assumed)": "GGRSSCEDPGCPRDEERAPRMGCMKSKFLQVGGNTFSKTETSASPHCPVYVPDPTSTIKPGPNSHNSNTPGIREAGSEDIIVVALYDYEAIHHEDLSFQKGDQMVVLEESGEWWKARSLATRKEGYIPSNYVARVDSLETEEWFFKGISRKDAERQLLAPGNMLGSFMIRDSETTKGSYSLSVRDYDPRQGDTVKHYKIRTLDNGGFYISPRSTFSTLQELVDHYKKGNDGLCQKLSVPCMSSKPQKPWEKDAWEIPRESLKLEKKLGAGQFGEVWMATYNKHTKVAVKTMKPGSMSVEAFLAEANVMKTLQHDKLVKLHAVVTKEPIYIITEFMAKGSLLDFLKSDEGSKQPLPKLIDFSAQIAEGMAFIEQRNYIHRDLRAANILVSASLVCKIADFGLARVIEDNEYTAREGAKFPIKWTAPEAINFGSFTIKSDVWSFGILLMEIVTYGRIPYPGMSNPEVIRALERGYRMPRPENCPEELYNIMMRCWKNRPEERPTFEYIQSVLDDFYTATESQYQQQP", "assay": "Selectivity interaction (KinomeScan (DiscoverX)) EUB0000695a HCK", "settings": "at 100 nM"}}}
{"smiles": "Cc1cc(C)cc([C@H]2c3cc(C)ccc3NC(=O)CN2C(=O)c2ccc(Br)s2)c1", "values": [{"measurement": "% of activity", "setting": "[1]; at 1 µM", "result": 98, "unit": "%"}, {"measurement": "% of activity", "setting": "[1]; at 10 µM", "result": 102, "unit": "%"}]}
{"smiles": "CN(C)CCOc1ccc(-c2nc(-c3ccncc3)c(-c3ccc4c(c3)CC/C4=N\\O)[nH]2)cc1", "values": [{"measurement": "% of control", "setting": "[2]", "result": 72, "unit": "%"}]}
{"smiles": "O[C@H]1CC[C@H](Nc2ncc3nc(Nc4c(F)cc(F)cc4F)n([C@H]4CCOC4)c3n2)CC1", "values": [{"measurement": "% of control", "setting": "[3]", "result": 100, "unit": "%"}]}
{"smiles": "CNC(=O)Nc1ccc(-c2nc(N3CC4CCC(C3)O4)c3cnn(C4CCC5(CC4)OCCO5)c3n2)cc1", "values": [{"measurement": "% of control", "setting": "[4]", "result": 100, "unit": "%"}]}
{"smiles": "C=CC(=O)Nc1cc(-n2c(=O)ccc3cnc4ccc(-c5ccc(NS(C)(=O)=O)cc5)cc4c32)ccc1C", "values": [{"measurement": "% of control", "setting": "[5]; at 1 µM", "result": 100, "unit": "%"}, {"measurement": "% of control", "setting": "[5]; at 10 µM", "result": 72, "unit": "%"}]}
{"smiles": "COCC(=O)NC/C=C/c1ccc2ncnc(Nc3ccc(Oc4ccc(C)nc4)c(C)c3)c2c1", "note": "[CP-724714]", "values": [{"measurement": "% of control", "setting": "[6]", "result": 100, "unit": "%"}]}
{"smiles": "CC[C@@H]1[C@H](F)C(=O)N[C@@H]1COc1nccc2cc(C(N)=O)c(OC)cc12", "note": "[ZIMLOVISERTIB]", "values": [{"measurement": "% of inhibition", "setting": "[7]", "result": -0.665, "unit": "%"}]}
{"smiles": "C=CC(=O)Nc1cccc(C(=O)Nc2ccc(Nc3cc(-c4[nH]c(SC)nc4C)ccn3)cc2)c1", "values": [{"measurement": "% of control", "setting": "[8]; at 1 µM", "result": 79, "unit": "%"}, {"measurement": "% of control", "setting": "[8]; at 5 µM", "result": 51, "unit": "%"}]}
{"smiles": "Cc1cc(F)c(C(=O)Nc2cccc(-c3nncn3C(C)C)n2)cc1-n1cnc(C2CC2)c1", "values": [{"measurement": "% of control", "setting": "[9]", "result": 100, "unit": "%"}]}
